In the NIST ThermoML archive (doi:10.1021/je400405m):
Numbers after ± are expanded uncertainties.

Test: wn = mass fraction of the nth substance listed
Details: w1 = 0.0516; for surface tension liquid-gas: Maximal bubble pressure; for viscosity / mass density: 101 kPa, Liquid; for viscosity: Capillary tube (Ostwald / Ubbelohde) method; for mass density: Pycnometric method

C1CNCCN1 [piperazine] + O
Details	mass density [kg/m3]	surface tension liquid-gas [mN/m]	viscosity [mPa·s]
303.15 K	998.03 ± 0.4	68.55 ± 0.54	0.948 ± 0.009
313.15 K	994.71 ± 0.44	66.97 ± 0.53	0.75 ± 0.007
323.15 K	990.08 ± 0.47	65.1 ± 0.52	0.616 ± 0.006
